Results on one molecule are retold here after patent US20090041719A1, “Method for screening therapeutic agent for glomerular disorder” (priority 2006, published 2009).

Structures are written as SMILES.

The test system of one assay is rBAT. Briefly: rBAT on large-cell fraction of interferon γ-stimulated THP-1, peak value by FACScan. It counts as cell-based, human. As for the experimental part:
The same procedures as in Experimental Example 2 were taken except the following conditions: human leukemia culture cell line THP-1 was used instead of the human peripheral blood mononuclear cells; the final addition concentration of the test compound (6-2) was set to 100 nM; fetal bovine serum was used instead of the human AB serum; and human recombinant interferon γ (PHP050, Serotec) (final concentration: 100 ng/ml) was used instead of LPS. Also, using rabbit anti-human 4F2hc polyclonal antibodies (see Biol Pharm Bull 30: 415-422, 2007) as the primary antibody, the peak value of HAT expressed on the fraction of large-cells in human leukemia culture cell strain THP-1, compared with those not stimulated with LPS, was measured. As a control, the one with no test-compound (DMSO alone) was used, and the rabbit anti-human rBAT polyclonal antibodies were obtained in the same manner as in Experimental Example 2.

Assay [1] concerns 4F2hc. Briefly: HAT heavy chain 4F2hc on large-monocyte fraction of LPS-stimulated human PBMC, peak value by FACScan (polyclonal antibody). The class given is cell-based. As for the experimental part: In the same manner as in 1) to 5) of Experimental Example 1, to human peripheral blood mononuclear cells, the test compound (6-2) (final concentration: 10 nM) or the test compound (7-3) (final concentration: 100 nM) was added at the same time when LPS (final concentration: 80 μg/ml) was added, followed by 6-day culture. Further, in the same manner as above, using rabbit anti-human 4F2hc polyclonal antibodies (see Biol Pharm Bull 30:415-422, 2007) as a primary antibody, the peak value of HAT expressed on the fraction of large-macrophages (larger than monocyte macrophages) in human PBMC was measured by FACScan using a commercially available cell fix/cell membrane infiltration kit (trade name: BD Cytofix/Cytoperm™ Kit, catalog No. 554714, BD Biosciences).
As a control, the one with no test-compound addition was used, and as a rabbit anti-human rBAT (related to b^0,+-type amino acid transporter) polyclonal antibody, the one obtained by coupling a synthesized peptide composed of an amino-terminal of human rBAT (MAEDKSKRDSIEMSMKGC (SEQ ID NO: 2)) and a carboxyl-terminal of mouse b^0,+AT (BAT1) (CHLQMLEWPEKDPE (SEQ ID NO: 3)) to a carrier KLH (keyhole-limpet hemocyanin), and immunizing a rabbit with it.

Assay [2] deals with 4F2hc. As to the kind of experiment: 4F2hc on large-cell fraction of LPS-stimulated THP-1, peak value by FACScan. It counts as cell-based, human. As for the experimental part: The same procedures as in Experimental Example 2 were taken except the following conditions: human leukemia culture cell line THP-1 was used instead of the human peripheral blood mononuclear cells; the final addition concentration of the test compound (6-2) was set to 100 nM, and the final addition concentration of the test compound (7-3) was set to 1000 nM; and fetal bovine serum was used instead of the human AB serum. The peak value of HAT expressed on the fraction of large-cells in human leukemia culture cell strain THP-1, compared with those not stimulated with LPS, was measured. As a control, the one with no test-compound addition was used, and the peak value of HAT was measured by FACScan using a commercially available cell fix/cell membrane infiltration kit (trade name: BD Cytofix/Cytopem™ Kit, catalog No. 554714, BD Bioscience).

The next assay deals with FRP-1/CD98/4F2hc. As to the kind of experiment: FACScan of FRP-1/CD98/4F2hc expression on macrophage fraction of LPS-stimulated human PBMC (monoclonal antibodies 4-5-1, 6-1-3, HBJ-127). The class given is cell-based.
[3] abbreviates: human PBMC + LPS 80 μg/ml, 6-day culture, test compound 10 nM.

With `O=C1CCC(F)(C(=O)OCc2ccccc2)O1` (centres unmarked) [Compound (6-2)], the “Change in HAT expressed on large-cell fraction of THP-1 (peak value by FACScan), rBAT” value in the assay with rBAT (THP-1 + human recombinant interferon γ 100 ng/ml, test compound 100 nM, solvent control 55) amounted to 50. The “amount of rBAT (in words)” value in the assay on rBAT (THP-1 + interferon γ, summary of Table 4) is given as “without any influence”. Moreover, the “Change in HAT expressed on large-monocyte fraction of human PBMC (peak value by FACScan), 4F2hc” value with 4F2hc [1] (human PBMC + LPS 80 μg/ml, 6-day culture, test compound 10 nM, solvent control 23) was determined as 10. Moreover, the “amount of 4F2hc in the heavy chain of HAT (in words)” value in the assay with 4F2hc [1] (human PBMC + LPS, summary of Table 2) is listed as “selectively decreased”. In addition, the “Change in HAT expressed on large-cell fraction of THP-1 (peak value by FACScan), 4F2hc” value in the assay on 4F2hc [2] (THP-1 + LPS 80 μg/ml, fetal bovine serum, test compound 100 nM, solvent control 12) is listed as 25. For the same molecule, the “amount of 4F2hc in the heavy chain of HAT (in words)” value with 4F2hc [2] (THP-1 + LPS, summary of Table 3) is given as “remarkably changed”. Also, the “expression of the FRP-1/CD98/4F2hc molecule lowered to” value in the assay with FRP-1/CD98/4F2hc (a different normal human PBMC, where expression was enhanced to 90% or more, not shown in Table) is reported as at most 5%. In the assay on FRP-1/CD98/4F2hc (setting [3]), the “Migration of FRP-1/CD98/4F2hc expression of macrophage fraction by FACScan (migration rate %), monoclonal antibody 4-5-1 (FRP-1)” value is recorded as 32.7%; the “Migration of FRP-1/CD98/4F2hc expression of macrophage fraction by FACScan (migration rate %), monoclonal antibody 6-1-3 (FRP-1)” value is reported as 29.8%; the “Migration of FRP-1/CD98/4F2hc expression of macrophage fraction by FACScan (migration rate %), monoclonal antibody HBJ-127 (CD98)” value is given as 11.0%. The “expression of FRP-1/CD98/4F2hc on macrophage fraction of human PBMC (in words)” value in the assay on FRP-1/CD98/4F2hc (stimulated and cultured with LPS, summary of Table 1) was “increased the expression”.
